Results published in the supplement of paper PMC4862054.

What was measured:
Settings in all cases: incubation time: 72 h
MFM-223 [1] = assay: normalised viability (% of control), CellTiter-Blue; higher = more viable cells (about 100 = DMSO control)
Outline: (§1)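 Breast cancer cell lines were treated for 72 h in 384-well format and measured by CellTiter-Blue fluorescence at 560/590 nm. Results were normalised per plate to vehicle (100) and a positive kill control (0). The entry is normalised viability at a single listed concentration of the series.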

CAL-51 [2] = assay: as above
Outline: as §1

HCC1937 [3] = assay: as above
Outline: as §1

HCC1599 [4] = assay: as above
Outline: as §1

MDA-MB-453 [5] = assay: as above
Outline: as §1

HDQ-P1 [6] = assay: as above
Outline: as §1

MDA-MB-436 [7] = assay: as above
Outline: as §1

HCC1143 = assay: drug sensitivity score (DSS), CellTiter-Blue viability (DSS (AUC-based score)); higher = stronger viability inhibition; extreme values may be limits of the assay
Method: (§2)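 DSRT with the CellTiter-Blue (resazurin reduction) viability readout, fluorescence 560/590 nm, 72 h incubation. Plates were normalised to DMSO and benzethonium chloride controls. DSS is computed from the area under the fitted dose-response curve (5 or 9 concentrations).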

CAL-148 = assay: as above
Method: as §2

MFM-223 [8] = assay: as above
Method: as §2

CAL-51 [9] = assay: as above
Method: as §2

CAL-85-1 = assay: as above
Method: as §2

MDA-MB-231 = assay: as above
Method: as §2

BT-474 = assay: as above
Method: as §2

HCC1937 [10] = assay: as above
Method: as §2

DU-4475 = assay: as above
Method: as §2

HCC1599 [11] = assay: as above
Method: as §2

BT-549 = assay: as above
Method: as §2

Hs578T = assay: as above
Method: as §2

MDA-MB-468 = assay: as above
Method: as §2

MDA-MB-453 [12] = assay: as above
Method: as §2

HDQ-P1 [13] = assay: as above
Method: as §2

SK-BR-3 = assay: as above
Method: as §2

MDA-MB-436 [14] = assay: as above
Method: as §2

CAL-120 = assay: as above
Method: as §2

CO[C@@H]1[C@H](N(C)C(=O)c2ccccc2)C[C@H]2O[C@]1(C)n1c3ccccc3c3c4c(c5c6ccccc6n2c5c31)C(=O)NC4 [Midostaurin]
normalised viability [%]
Settings | CAL-51 [2] | HCC1599 [4] | HCC1937 [3] | HDQ-P1 [6] | MDA-MB-436 [7] | MDA-MB-453 [5] | MFM-223 [1]
3 nM | 97.5 | – | – | 84.7 | – | 108 | –
10 nM | – | 106 | 111 | – | 94.2 | – | 96.3
30 nM | 87.9 | – | – | 95.7 | – | 92.1 | –
100 nM | 82.4 | – | – | 96.8 | – | 87.2 | –
1000 nM | – | 78.8 | 56.5 | – | 62.7 | – | 74.4
10000 nM | – | 72.6 | 44.9 | – | 57.2 | – | 64.2

Settings | drug sensitivity score
BT-474 | 0
BT-549 | 9.72
CAL-51 [9] | 19.4
CAL-85-1 | 3.45
CAL-120 | 8.21
CAL-148 | 0
DU-4475 | 15.8
HCC1143 | 4.83
HCC1599 [11] | 3.48
HCC1937 [10] | 10
HDQ-P1 [13] | 10.9
Hs578T | 14.9
MDA-MB-231 | 9.28
MDA-MB-436 [14] | 8.07
MDA-MB-453 [12] | 7.82
MDA-MB-468 | 9.5
MFM-223 [8] | 4.68
SK-BR-3 | 6.46

CO[C@@]12[C@H](COC(N)=O)C3=C(C(=O)C(C)=C(N)C3=O)N1C[C@@H]1N[C@@H]12 [Mitomycin C]
normalised viability [%]
Settings | CAL-51 [2] | HCC1599 [4] | HCC1937 [3] | HDQ-P1 [6] | MDA-MB-436 [7] | MDA-MB-453 [5] | MFM-223 [1]
3 nM | 119 | – | – | 105 | – | 124 | –
10 nM | – | 110 | 88.4 | – | 100 | – | 96.9
30 nM | 118 | – | – | 96.3 | – | 94.5 | –
100 nM | 107 | – | – | 104 | – | 91.4 | –
1000 nM | – | 73.2 | 45.4 | – | 76.2 | – | 96.2
10000 nM | – | 14.6 | 21.6 | – | 17.6 | – | 8.74

Settings | drug sensitivity score
BT-474 | 3.1
BT-549 | 4.28
CAL-51 [9] | 2.74
CAL-85-1 | 4.52
CAL-120 | 2.85
CAL-148 | 5.96
DU-4475 | 3.3
HCC1143 | 8.46
HCC1599 [11] | 8.65
HCC1937 [10] | 14.1
HDQ-P1 [13] | 2.19
Hs578T | 4.97
MDA-MB-231 | 5.97
MDA-MB-436 [14] | 6.47
MDA-MB-453 [12] | 5.18
MDA-MB-468 | 7.16
MFM-223 [8] | 4.69
SK-BR-3 | 9.21

CCNC(=O)c1noc(-c2cc(C(C)C)c(O)cc2O)c1-c1ccc(CN2CCOCC2)cc1 [NVP-AUY922]
normalised viability [%]
Settings | CAL-51 [2] | HCC1599 [4] | HCC1937 [3] | HDQ-P1 [6] | MDA-MB-436 [7] | MDA-MB-453 [5] | MFM-223 [1]
0.3 nM | 107 | – | – | 94 | – | 124 | –
1 nM | – | 101 | 58.5 | – | 111 | – | 97.4
3 nM | 106 | – | – | 97.8 | – | 98 | –
10 nM | 104 | – | – | 64.9 | – | 83.2 | –
100 nM | – | 43.4 | 24.7 | – | 11.2 | – | 26.1
1000 nM | – | 41.2 | 30.7 | – | 19.9 | – | 25.4

Settings | drug sensitivity score
BT-474 | 15.2
BT-549 | 19.6
CAL-51 [9] | 18.6
CAL-85-1 | 16
CAL-120 | 21.3
CAL-148 | 18.1
DU-4475 | 21.7
HCC1143 | 9.99
HCC1599 [11] | 9.96
HCC1937 [10] | 26.1
HDQ-P1 [13] | 18
Hs578T | 18.8
MDA-MB-231 | 17.3
MDA-MB-436 [14] | 20.7
MDA-MB-453 [12] | 20.8
MDA-MB-468 | 19.4
MFM-223 [8] | 20.9
SK-BR-3 | 22.8
